# Laboratory results from PubChem BioAssay (NCI).
# “And” between values parts separate entries of the source, which are not always exact repeats. Identical values can stand only once.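 1) Cells in 96-well plates. 2) Compound, 48 h, 5 concentrations. 3) Linear interpolation between surrounding doses. 4) Unreached endpoint = highest concentration. Here, GI50 denotes the concentration required for 50% inhibition of growth. At the TGI there is no net growth.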
# How the values were obtained:
# Assay in all cases: inhibition of tumour cell growth, NCI panel, 48 h
# NCI-H522 lung = tested on: NCI-H522 lung
# NCI/ADR-RES ovarian = tested on: NCI/ADR-RES ovarian
# HCT-15 colon = tested on: HCT-15 colon
# OVCAR-5 ovarian = tested on: OVCAR-5 ovarian
# CCRF-CEM leukemia = tested on: CCRF-CEM leukemia
# LOX IMVI melanoma = tested on: LOX IMVI melanoma
# SF-268 CNS = tested on: SF-268 CNS
# SW-620 colon = tested on: SW-620 colon
# KM12 colon = tested on: KM12 colon
# HCC-2998 colon = tested on: HCC-2998 colon
Compound,GI50 (NCI-H522 lung),TGI (NCI-H522 lung),GI50 (NCI/ADR-RES ovarian),TGI (NCI/ADR-RES ovarian),GI50 (HCT-15 colon),TGI (HCT-15 colon),GI50 (OVCAR-5 ovarian),TGI (OVCAR-5 ovarian),GI50 (CCRF-CEM leukemia),TGI (CCRF-CEM leukemia),GI50 (LOX IMVI melanoma),TGI (LOX IMVI melanoma),GI50 (SF-268 CNS),TGI (SF-268 CNS),GI50 (SW-620 colon),TGI (SW-620 colon),GI50 (KM12 colon),TGI (KM12 colon),GI50 (HCC-2998 colon),TGI (HCC-2998 colon)
CC(=O)[CH-]C(C)=O.CC(=O)[CH-]C(C)=O.N=CC=N.[Sn+2],0.911 µM,2.13 µM,3.15 µM,12.6 µM,2700 nM,7.14 µM,7.29 µM,19.2 µM,1.51 µM,13.3 µM,1570 nM,2.97 µM,3.28 µM,10.5 µM,1710 nM,3.11 µM,2.94 µM,8.49 µM,12.5 µM,25.2 µM
CNc1nc(NC2CCCC2)nc(Sc2ccc(OC)cc2)n1,> 10 µM,> 10 µM,> 10 µM,> 10 µM,> 10000 nM,> 10 µM,> 10 µM,> 10 µM,> 10 µM,> 10 µM,> 10000 nM,> 10 µM,> 10 µM,> 10 µM,> 10000 nM,> 10 µM,> 10 µM,> 10 µM,> 10 µM,> 10 µM
CC(=O)O[C@H]1C(=O)[C@@]2(C)[C@H]([C@H](OC(=O)c3ccccc3)[C@]3([O-])C[C@H](OC(=O)[C@H]([O-])[C@@H](NC(=O)c4ccccc4)c4ccccc4)C(C)=C1C3(C)C)[C@]1(OC(C)=O)CO[C@@H]1C[C@@H]2[O-].[Fe+3],0.0385 µM,12.8 µM,19.2 µM,15.9 µM and > 100 µM,1970 nM and 2330 nM,16.2 µM and 17 µM,0.88 µM,11.1 µM and > 100 µM,0.249 µM and 0.876 µM,65 µM and 68.9 µM,21.9 nM and 107 nM,,0.104 µM and 0.165 µM,45.3 µM and > 100 µM,35.2 nM and 66.4 nM,19.2 µM and 47.4 µM,0.0324 µM and 0.0623 µM,0.21 µM and 1.21 µM,0.0365 µM,0.295 µM
Cc1ccc2/c(=C/c3ccc(N(C)C)cc3)c3cc(-c4ccccc4)[n+](C)n3c2c1,0.0547 µM,> 100 µM,6.41 µM,> 100 µM,824 nM,> 100 µM,0.456 µM,4.74 µM,0.0269 µM,,< 10 nM,> 100 µM,,,186 nM,1.51 µM,0.0209 µM,0.12 µM,< 0.0199 µM,0.197 µM
C=CC(=O)Nc1cccc(Nc2nc(Nc3ccc(OCCOC)cc3)ncc2F)c1,1.78 µM,8.14 µM,2.94 µM,16.3 µM,1030 nM,16.1 µM,1.89 µM,21 µM,4.06 µM,> 63.1 µM,1120 nM,3.62 µM,2.06 µM,16 µM,2140 nM,22.3 µM,3.43 µM,15.6 µM,3.55 µM,19.5 µM
CNC(=O)c1cn(C[C@H](F)CCc2ccc(NC(=O)Cc3cc(OC4CC(F)(F)C4)cc(C)n3)nn2)nn1,5.18 µM,> 100 µM,> 100 µM,> 100 µM,> 100000 nM,> 100 µM,> 100 µM,> 100 µM,> 45.8 µM,> 100 µM,> 100000 nM,> 100 µM,> 100 µM,> 100 µM,> 100000 nM,> 100 µM,> 100 µM,> 100 µM,> 100 µM,> 100 µM
Cc1ccsc1C(=S)Nc1ccc(Cl)c(C(=O)OC(C(C)C)C(C)C)c1,,81.8 µM,,> 100 µM,,> 100 µM,,> 100 µM,,> 100 µM,,55.3 µM,,> 100 µM,,98.8 µM,,> 100 µM,,> 100 µM
COC(=O)C(Cc1ccccc1)N/C=C\C(=O)c1ccc(Cl)cc1 (stereo not given),32.5 µM,> 100 µM,19.7 µM,50.4 µM,23600 nM,59.3 µM,24.9 µM,74.4 µM,39.7 µM,> 100 µM,19600 nM,39.4 µM,31.6 µM,67.4 µM,31700 nM,97.2 µM,21.2 µM,47.1 µM,18.5 µM,40.1 µM
C[C@H]1CCC/C=C/[C@@H]2C[C@H](N)C[C@H]2[C@H](O)/C=C/C(=O)O1,> 100 µM,> 100 µM,> 100 µM,> 100 µM,> 100000 nM,> 100 µM,> 100 µM,> 100 µM,83.2 µM,> 100 µM,> 100000 nM,> 100 µM,> 100 µM,> 100 µM,> 100000 nM,> 100 µM,71.4 µM,> 100 µM,> 100 µM,> 100 µM
COc1ccc(-c2cc(-c3cc(Cl)ccc3Cl)nc3nc(=S)[nH]c(N)c23)cc1,28.2 µM,> 100 µM,20.1 µM,45.2 µM,17500 nM,> 100 µM,20.1 µM,51.4 µM,26.6 µM,> 100 µM,14200 nM,44.4 µM,57.7 µM,> 100 µM,38700 nM,> 100 µM,26.8 µM,> 100 µM,23.1 µM,40.1 µM
CC1=C(C)C(=O)O[C@@H]([C@](C)(O)[C@]2(O)CC[C@@]3(O)[C@@H]4C[C@H]5O[C@]56CC=CC(=O)[C@]6(C)[C@H]4CC[C@]23C)C1,0.1 µM,0.534 µM,2.76 µM,> 63.8 µM,152 nM,1.25 µM,0.299 µM,2.51 µM,0.163 µM,,188 nM,1.38 µM,0.424 µM,2.35 µM,98.9 nM,1.1 µM,0.266 µM,1.57 µM,0.772 µM,2.17 µM
CNC(=O)c1ccc(-c2cnc3ncc(Cc4ccc5ncccc5c4)n3n2)cc1F,38 µM,> 100 µM,> 100 µM,> 100 µM,> 100000 nM,> 100 µM,> 100 µM,> 100 µM,> 100 µM,> 100 µM,> 100000 nM,> 100 µM,83 µM,> 100 µM,> 100000 nM,> 100 µM,> 100 µM,> 100 µM,> 100 µM,> 100 µM
COc1ccc2c(-c3cc4ccccc4o3)cc(=O)oc2c1,,> 91.8 µM,,> 100 µM,,> 100 µM,,> 100 µM,,> 100 µM,,> 100 µM,,> 94 µM,,> 100 µM,,> 100 µM,,> 100 µM
